One molecule from patent US20090247495A1, “CU[…] AND USES THEREOF” (priority 2007, published 2009) can be followed below.

The subject of experiment [1] is PARP. Kind of experiment: Western blot of PARP cleavage in HL60 cells. The experiment is classed as cell-based, human. The procedure:
Control cells, as well as cells treated with cucurbitacin B or cucurbitacin D, were harvested and collected by centrifugation. Whole cell extracts were then prepared by lysing the cells using 4% sodium dodecyl sulfate (SDS) gel sample buffer. Cell extracts were boiled for 10 min and chilled on ice, subjected to 12% SDS-polyacrylamide gel electrophoresis, and transferred to a PVDF membrane. Each membrane was cut into to two pieces with one piece incubated at 4° C. overnight with antibodies against cell cycle signaling proteins, such as ERK, phosphorlated-ERK, p38, phosphorlated-p38, Cyclin E, Retinoblastoma, phosphalated-Retinoblastoma and c-myc, and apoptotic protein (PARP). β-actin was used as a control for protein loading. All antibodies were obtained from Cell signaling Technologies (USA). Then membranes were incubated at 37° C. for 1 h with secondary antibody conjugated with peroxidase, and the signal was detected using chemiluminescence detection reagent. The relative protein level was calculated as the ratio of the optical density of the protein of interest to that of β-actin.

The test system of experiment [2] is Panc-1 and SW cells. The experiment is described as follows: Annexin V / PI apoptosis by flow cytometry, pancreatic cells. The experiment is classed as cell-based, human. The settings on record: 48 h, increasing concentration. The procedure:
Panc-1 and SW cells was incubated with vary doses of cucurbitacin B for 48 h at 37° C. At the end of treatment, cells were washed twice with cold PBS and resuspended at 2×10^6 cells/ml in 1×binding buffer. The cells were then stained with Annexin V and propidium iodide. All analyses were performed by flow cytometry.
(In flow cytometry, cells or beads pass a laser one at a time.)

Experiment [3] concerns Human cancer cell lines from the 59-NCI Cancer Cell Line Panel. The experiment is classed as cell-based.
The test system of experiment [4] is Human pancreatic cancer cell line Panc-1. Kind of experiment: Hollow fiber assay, Panc-1. It counts as in vivo, nude mice. To be noted: up to 8 days. The procedure: The hollow fiber assay (HFA) was developed by the NCI as a high-throughput, preliminary in vivo screening assay for the evaluation of anti-cancer agents.
Human pancreatic cancer cell line Panc-1 were in vitro cultured inside hollow fibers for overnight, followed by in vivo implantation at s.c. sites of the nude mice. Mice were treated with vehicle control (0.5% CMC), positive control (100 mg/kg Gemcitabine) and 3 doses of cucurbitacin B (0.1 mg/kg, 0.5 mg/kg and 1.0 mg/kg) for up to 8 days. Then the fibers were excised and analyzed for cell viability by MTT assay. An additional group, the growth control group was also included in the assay. Mice in this group were sacrificed on the first day of treatment, and fibers were excised and analyzed for cell viability by MTT assay. The efficacies of cucurbitacin B against Panc-1 were expressed as the inhibited (or not) net growth percentage of the cancer cells when compared to the vehicle control group.

In experiment [5] the test system is Panc 02.13. The experiment is described as follows: MTT cell cytotoxicity assay, Panc 02.13. It counts as cell-based. To be noted: Homo sapiens, 48 hours. How it is done: (§1) Three human pancreatic cancer cell lines (Panc-1, Panc 02.13, Panc 10.05) were purchased from American Type Culture Collection (ATCC, Manassas, Va., USA). Panc 02.13 and Panc 10.05 were grown in RPMI 1640 medium supplemented with 15% FBS, 4.5 g/L glucose, 10 mM HEPES, and 1.0 mM sodium pyruvate and 10 Units/ml human insulin; while PANC-1 was grown in Dulbecco's modified Eagle's medium supplemented with 10% FBS. They were maintained in a humidified 5% CO2 atmosphere at 37° C. and the culture medium was changed once in 2 days.
(§2) The cytotoxic effect of CuB on these three cancer cell lines were determined using MTT (3-[4,5-dimethylthiazol-2-yl]-2,5-diphenyl tetrazolium bromide) labeled cell cytotoxicity assay. A total of 1×10^4 cells were seeded into a 96-well plate for 24 hours prior to cucurbitacin B (CuB) treatment. They were then treated with different dosages of CuB for 48 hours. After the treatment, 20 μl of MTT (5 mg/ml) was added to each well and incubated for 4 hrs. Then the medium was discarded and 100 μl of dimethyl sulfoxide was added. The absorbance at 570 nm was then measured by FLUOstar OPTIMA equipment (BMG, LABTECH GmbH, Germany). The percentage of inhibition against different dosages of CuB were plotted using the Prism software and the 50% inhibition concentration (IC50) were obtained. […]

Experiment [6] deals with colon cancer cell line (HT29). The experiment is described as follows: MTT cell cytotoxicity assay, HT29. To be noted: Homo sapiens, HT-29; 48 hours; read-out: IC50. It counts as cell-based, human. The procedure: Three human cancer cell lines (HepG2(liver), HT29(colon) and MCF-7(breast)) were purchased from American Type Culture Collection (ATCC, Manassas, Va., USA). The cells were cultured in RPMI 1640 medium supplemented with 5% (v/v) fetal bovine serum (FBS) and 100 units/ml penicillin and streptomycin (Invitrogen Life Technologies) in a humidified 5% CO2 atmosphere at 37° C.
The cytotoxic effect of CuB and CuD on these three cancer cell lines were determined using MTT (3-[4,5-dimethylthiazol-2-yl]-2,5-diphenyl tetrazolium bromide) labeled cell cytotoxicity assay. A total of 1×10^4 cells were seeded into a 96-well plate for 24 hours prior to cucurbitacin B (CuB) or cucurbitacin D (CuD) treatment. They were then treated with different dosages of CuB/CuD for 48 hours. After the treatment, 20 μl of MTT (5 mg/ml) was added to each well and incubated for 4 hrs. Then the medium was discarded and 100 μl of dimethyl sulfoxide was added. The absorbance at 570 nm was then measured by using FLUOstar OPTIMA equipment (BMG, LABTECH GmbH, Germany). The percentage of inhibition against different dosages of CuB/CuD were plotted using the Prism software and the 50% inhibition concentration (IC50) were obtained.
(Tetrazolium assays rely on reduction of a dye to a coloured formazan, in cell work by metabolically active cells.)

For experiment [7], the system named is Panc 10.05. Kind of experiment: MTT cell cytotoxicity assay, Panc 10.05. To be noted: Homo sapiens, Panc1005, 48 hours. It counts as cell-based. The procedure:
as §1, §2

Experiment [8] has as its system K562 cells. The experiment is described as follows: Flow cytometry for cell cycle analysis, K562. It counts as cell-based, human. The settings on record: 80 nM, 48 hours, serum starved 24 hours. The procedure: K562 cells were serum starved for 24 hours prior to cucurbitacin B treatment. After 48 hours of treatment, the cells were collected and rinsed twice with phosphate-buffer saline and fixed with 80% ice-cold ethanol for […]. Then, the cells were stained with propidium iodine at 1 mg/ml for 15 minutes at room temperature. The stained cells were analyzed by flow cytometry (FACS Calibur BD Flow Cytometer) • 6.1.6 Western Blot Analysis
Appropriate numbers of cell density were serum starved for 24 hours prior to treatment with different doses of cucurbitacin B for 2 days. The cell cycle analysis profile of K562 cells after cucurbitacin B treatment were detected using Flow Cytometry analysis after fixed with 80% ice-cold ethanol at 4° C. and then stained with PI for 15 minutes.

≈ marks a conversion by molar mass, not a printed value.

A word on the GI50: it is the concentration giving 50% growth inhibition. A higher GI50 goes with lower sensitivity of the cells. By IC50 is commonly meant the concentration that inhibits the measured activity by half. Turning to `CC(=O)OC(C)(C)/C=C/C(=O)[C@](C)(O)C1[C@H](O)C[C@@]2(C)C3CC=C4C(C[C@H](O)C(=O)C4(C)C)[C@]3(C)C(=O)C[C@]12C` (stereo partly shown) [cucurbitacin B], the “apoptosis marker PARP” value in experiment [1] is “cleavage of PARP”. Further, in experiment [2], the apoptotic cells entry is reported as “the percentage of apoptic cells rise”. The “cell lines with G2/M arrest” value in experiment [3] was 6 out of 18. Besides, in experiment [3] (HL60 (TB), 48 hours), the cell cycle effect result was “G2/M arrest and endoreduplication”. Besides, the “net-growth of Panc-1 compared to the vehicle control group” value in experiment [4] (0.1 mg/kg and 0.5 mg/kg) is listed as “about 40%”. For the same molecule, in experiment [4] (0.1 mg/kg, 0.5 mg/kg and 1.0 mg/kg), the “net cell growth of Panc-1 in hollow fibers” value is listed as “potently inhibited”. The GI50 in experiment [5] was found to be 5.13 µM; in experiment [7], 5.81 µM. For the same molecule, the concentration for half-maximal inhibition (IC50) in experiment [6] was 0.31 µg/mL (≈ 0.555 µM). The “percentage in the G2/M phase” value in experiment [8] stood at 70%.
